This passage reports Kd results from PubChem BioAssay AID1033 (Sanford-Burnham Center for Chemical Genomics, 2008).

Activity calls are given as the source filed them. No rule for the calls is given here.

The target of this test is Chaperone protein DnaK (Escherichia coli (strain K12)) (UniProt P0A6Y8). Description: E. coli DnaK SBD ligand binding – biophysical, NMR, chaperone (AID 1033). As to conditions: Purified DnaK SBD.
Chain of Chaperone protein DnaK (Escherichia coli (strain K12)) (P0A6Y8 whole entry, looked up): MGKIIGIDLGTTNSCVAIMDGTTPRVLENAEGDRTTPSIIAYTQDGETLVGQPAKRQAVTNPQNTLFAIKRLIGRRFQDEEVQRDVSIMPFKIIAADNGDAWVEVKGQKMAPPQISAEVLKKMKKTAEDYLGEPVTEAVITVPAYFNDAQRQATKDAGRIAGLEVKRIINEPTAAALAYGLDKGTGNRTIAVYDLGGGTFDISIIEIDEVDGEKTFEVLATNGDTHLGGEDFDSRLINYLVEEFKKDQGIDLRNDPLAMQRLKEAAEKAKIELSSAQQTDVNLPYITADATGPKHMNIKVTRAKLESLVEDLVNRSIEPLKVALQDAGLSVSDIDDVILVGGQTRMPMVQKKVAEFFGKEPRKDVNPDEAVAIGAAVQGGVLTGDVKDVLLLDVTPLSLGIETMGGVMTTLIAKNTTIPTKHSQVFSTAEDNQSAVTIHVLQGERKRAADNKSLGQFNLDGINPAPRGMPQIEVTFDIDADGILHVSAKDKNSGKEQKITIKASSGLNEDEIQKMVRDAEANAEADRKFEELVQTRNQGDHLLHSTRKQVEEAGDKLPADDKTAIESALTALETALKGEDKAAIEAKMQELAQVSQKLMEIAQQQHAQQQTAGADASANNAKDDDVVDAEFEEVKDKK

For `c1ccc2[nH]c(CCn3cncn3)nc2c1`, the Kd (commonly a measure of binding affinity in units of concentration) is > 4 mM (inactive).
Next, `Cc1ccc2nc(SCCC#N)nc(C)c2c1`: > 4 mM (inactive).
In the case of `CNC(=O)c1cccc(NC(=S)NC)c1`, the Kd is > 4 mM (inactive).
`NC1=NC(=O)/C(=C/c2ccccc2[N+](=O)[O-])S1`: the Kd was > 4 mM (inactive).
In the case of `Cc1ccc(C(=O)N2CCOCC2)cc1Cl` it was > 4 mM (inactive).
Next, `NC(=O)NC1NC(=O)NC1=O` (stereo not given): > 4 mM (inactive); `Cc1ccc(CN2CCN(C(=O)C3CCC3)CC2)cc1`: > 4 mM (inactive); `CC(C)C(=O)NCC(c1ccco1)N1CCOCC1` (stereo not given): > 4 mM (inactive).
Next, `O=C(Nc1cnccn1)c1cccs1`: > 4 mM (inactive); `O=C(O)CCC(=O)Nc1ccccc1F`: > 4 mM (inactive); `O=[n+]1c(CO)c(CO)n([O-])c2ccccc21`: > 4 mM (inactive).
On to `Cc1c(F)cccc1NS(=O)(=O)c1ccccc1C#N`, for which the Kd is > 4 mM (inactive).
Next, `Cn1c(SCC(=O)NCCO)nc2ccccc2c1=O`: > 4 mM (inactive); `CCC(=O)NC(=S)Nc1ccc(C(N)=O)cc1`: > 4 mM (inactive).
In the case of `Nc1c(Nc2ccccc2)c2ccccc2oc1=O` it was > 4 mM (inactive); in that of `COc1ccc2c(c1)OCC(Cc1ccc(OC)c(OC)c1)C2=O` (stereo not given), > 4 mM (inactive); in that of `CN1C(=O)c2ccc(N=C3NC(=O)CS3)cc2C1=O`, > 4 mM (inactive).
In the case of `Cn1c(SCc2ccon2)nc2ccccc2c1=O` it was > 4 mM (inactive).
Turning to `Cc1cc(C)n2nc(C(=O)NCc3ccco3)nc2n1`, the Kd was > 4 mM (inactive).
Next, `CC(=O)O[C@@H]1CC2C(C)(C)[C@H](O)C[C@H](O)[C@]2(C)C2CC[C@@]3(C)C(=CC(=O)O[C@H]3c3ccoc3)[C@@]21C` (stereo not given in full): > 4 mM (inactive).
Next, `Cc1cc(C)nc(/N=C(/N)N2CCC(C(N)=O)CC2)n1`: > 4 mM (inactive); `O=C(O)Cn1c(=O)sc2ccccc21`: > 4 mM (inactive).
In the case of `O=C1C(=O)N(CN2CCN(CCO)CC2)c2ccccc21` it was > 4 mM (inactive); in that of `CC(=O)O[C@]1(C)CC[C@@]23CC1C(C)(C)[C@@H]2CC[C@H]3C`, > 4 mM (inactive); in that of `O=c1c2c(nc3nc(COc4ccccc4)[nH]n13)CCC2`, > 4 mM (inactive).
For `N[C@@H](CCC(=O)N[C@@H](CS)C(=O)NCC(=O)O)C(=O)O`, the Kd is > 4 mM (inactive).
Next, `CC(=O)Nc1ccc2c(C)cc(=O)[nH]c2c1`: > 4 mM (inactive); `Cc1c(C)n2c(SCC(N)=O)nnc2[nH]c1=O`: > 4 mM (inactive).
Next, `Cc1ccc(N)nc1`: > 4 mM (inactive); `Cc1cc2c(N)cccc2nn1`: > 4 mM (inactive).
Next, `Nn1c(CN2CCCCC2)nc2ccccc2c1=O`: > 4 mM (inactive); `O=C1NC(=Nc2ccccc2)S/C1=C/c1cccnc1`: > 4 mM (inactive); `CC1=C(C(=O)Nc2ccccc2)SCCO1`: > 4 mM (inactive).
Regarding `O=C(NCC1CCNCC1)c1ccccn1`, the Kd is > 4 mM (inactive).
As to `Cc1cc(C(=O)NC(C)c2ccncc2)cs1` (stereo not given), the Kd was > 4 mM (inactive).
Next, `O=C(O)c1cccc2nsnc12`: > 4 mM (inactive).
Next, `CC(=O)NC(=S)Nc1ccccc1C`: > 4 mM (inactive); `O=C(Nc1ccon1)c1cccc(Cl)c1`: > 4 mM (inactive); `O=C1CSC2(CN3CCC2CC3)N1` (stereo not given): > 4 mM (inactive).
In the case of `O=C1C2C3C=CC(C3)C2C(=O)N1CCCO` (stereo not given) it was > 4 mM (inactive).
Regarding `Nc1nc2ccc(N3CCOCC3)cc2s1`, the Kd was > 4 mM (inactive).
In the case of `NCc1ccc(N2CCOCC2)cc1` it was > 4 mM (inactive).
Next, `Nc1ccccc1C(=O)N1CCNC(=O)C1`: > 4 mM (inactive); `COCC(=O)Nc1cccc2ccccc12`: > 4 mM (inactive); `Cn1nc(C(=O)Nc2cccnc2)c2ccccc2c1=O`: > 4 mM (inactive).
With `O=CN1CCN(C(=O)c2ccccc2F)CC1`, the Kd was > 4 mM (inactive).
In the case of `CC(C)=CCOc1cc2oc(=O)ccc2cc1O` it was > 4 mM (inactive).
In the case of `COc1ccc2c(c1OC)C(=O)O[C@@H]2[C@@H]1c2cc3c(cc2CCN1C)OCO3` it was > 4 mM (inactive).
Next, `COc1ccc(-c2c(C)n([O-])c(C)c(C)[n+]2=O)cc1`: > 4 mM (inactive).
Take `O=C1NC(=S)NC(=O)C1=Cc1cccs1`: the Kd is > 4 mM (inactive).
Next, `NC(=O)CSCc1ccc(Br)cc1`: > 4 mM (inactive); `Cc1ccc2nc(NC(=O)CN3CCOCC3)sc2c1`: > 4 mM (inactive); `O=C1NC(=O)/C(=C\c2ccncc2)S1`: > 4 mM (inactive).
Next, `CCCC(=O)N1CCSCC1`: > 4 mM (inactive).
As to `Nc1cccc(S(=O)(=O)N2CCCCC2)c1`, the Kd is > 4 mM (inactive).
Next, `CC1=C(C(N)=O)C(c2ccccc2)NC(=O)N1` (stereo not given): > 4 mM (inactive).
Turning to `CNC(=O)C1CC(=O)N(c2ccc(O)cc2)C1` (stereo not given), the Kd is > 4 mM (inactive).
For the compound `O=C(c1ccccc1)c1ccccc1C(=O)N1CCCC1`, the Kd was > 4 mM (inactive).
In the case of `O=C(c1ccc(F)cc1)N1CCOCC1` it was > 4 mM (inactive); in that of `C=C1CCC2C(CC2(C)C)C(=O)CCC1O` (stereo not given), > 4 mM (inactive); in that of `COc1cc(CNC(=O)CCCC/C=C/C(C)C)ccc1O`, > 4 mM (inactive).
Next, `Cn1c(O)c(/C=C2\C=CC=N2)c(=O)[nH]c1=O`: > 4 mM (inactive); `CC(=O)NS(=O)(=O)c1ccc(C)cc1`: > 4 mM (inactive).
Regarding `CC(=O)Nc1ccc(NC(C)=O)cc1`, the Kd was > 4 mM (inactive).
In the case of `O=C1NC(=S)N/C1=C/c1ccsc1` it was > 4 mM (inactive); in that of `O=C(CC1SC(=O)NC1=O)Nc1nccs1` (stereo not given), > 4 mM (inactive); in that of `Oc1cnc2ccccc2c1CN1CCOCC1`, > 4 mM (inactive).
Next, `Cn1nc(C(=O)Nc2cccnc2)cc1Cl`: > 4 mM (inactive).
In the case of `O=C1Cn2c(nc3ccccc32)N1c1ccccc1F`, the Kd is > 4 mM (inactive).
Consider `Cc1n[nH]c(=S)n1-c1ccc(C(=O)O)cc1`, for which the Kd is > 4 mM (inactive).
On to `O=C1CSC(=Nc2ccc(F)cc2)N1`, for which the Kd was > 4 mM (inactive).
For `COc1cccc(NC(=O)c2cccs2)c1`, the Kd was > 4 mM (inactive).
Next, `CC1(C)C2CC[C@]3(C)C(C(=O)C=C4[C@H]5C[C@@](C)(C(=O)O)CC[C@]5(C)CC[C@]43C)[C@@]2(C)CC[C@@H]1O` (stereo not given in full): > 4 mM (inactive).
In the case of `O=C(O)c1cccc(O)c1O`, the Kd was > 4 mM (inactive).
Next, `CC(=O)O[C@@H]1CC2C(C)(CC[C@H](O)C2(C)C)C2CC[C@]3(C)C(=CC(=O)O[C@H]3c3ccoc3)C21C` (stereo not given in full): > 4 mM (inactive).
